“Also recorded” adds a separate entry of the source.
Key:
Nav1.5 WT = target: T1, Nav1.5 WT (Homo sapiens, UniProt Q14524); test: Microscale thermophoresis (MST) binding of diC8-PIP2 to GFP-tagged wild type Nav1.5 in cell lysate
T1 construct: expressed in transfected cells; host or cells: HEK293T cells, lysed; unpurified lysate supernatant used
Method: The method utilizes cell lysates obtained from transfected/infected cells that are lysed and incubated with varying concentrations of a water-soluble analogue of PIP2 commercially available as diC8-PI(4,5)P2, in a 384 well plate. Other phosphoinositides such as diC8PI(4)P of diC8PI(5)P can also be utilized. After a brief incubation (10-30 mins) samples are loaded onto capillary chips purchased from the company Nanotemper. Samples are run on the Nanotemper Monolith instrument. This instrument is advertised to detect green fluorescent protein (GFP) tagged proteins, however we have also used TFP (teal FP) tagged proteins. The instrument provides a short infra-red laser pulse which produces a short thermal gradient. Protein that is interacting with the lipid migrates differently through this thermal gradient and its movement is evaluated by the fluorescence of the GFP/TFP tag on the protein. Based on the concentration of the dic8-phosphoinositide, this resolves into a sigmoidal relationship that delivers an apparent affinity (Kd) value. A test ligand can be added to this assay at a known concentration that is at or close to its Kd for the channel. A shift in the channel's affinity for PIP2 in this assay can help indicate whether this test compound is a good drug candidate for further biological experiments.
Results. […]

WT-Nav1.5 = target: T2, WT-Nav1.5 (Homo sapiens, UniProt Q14524); test: Whole-cell patch-clamp ILATE of wild type Nav1.5 in HEK293T cells with CRY2-5POCRL; assay type: cell-based; conditions: diC8-PIP2 in pipette
T2 construct: expressed in transfected cells; host or cells: HEK293T
Method: (§1) This is opposed when by 200 μM diC8-PIP2 in the pipette. Comparisons are Students t-test, *** P<0.01, ****P0.001 for 4-6 cells per group.
Results. Our studies were designed to evaluate PIP2-regulation for Nav1.5 channelopathies from multiple perspectives. Given that there is a lack of structural data to identify where, or how many PIP2 molecules bind to Nav1.5, we performed a docking simulation to identify putative PIP2 binding sites in the open, rat and human Nav1.5 cryoEM structures (PDB: 6UZ3 and 7DTC) (56-58). We observed four potential PIP2 binding sites at the boundary between the inner leaflet of the membrane and the cytoplasm with one at the interface between each voltage sensor and the channel body. In each case, we noted electrostatic and hydrogen bond interactions between the headgroup of PIP2 and multiple disease associated residues. Among these, we elected to perform functional studies on Nav1.5-R1644C, an LQT3 mutant located between the S4 and S5 transmembrane segments of DIV. We expressed wild type Nav1.5 or Nav1.5-R1644C with Nav1β, CIBN-CAAX and CRY2-5POCRL in HEK293T cells and studied ILATE with and without optogenetic dephosphorylation of PIP2. In wild-type Nav1.5, ILATE was 0.25±0.1% of the peak (n=8) whereas in Nav1.5-R1664C, ILATE was 1.2±0.2% of peak (n=8, P<0.01, unpaired t-test comparison to WT). […]

IK1 (Kir2.1) = target: T3, IK1 (Kir2.1) (Rattus norvegicus, UniProt Q64273); conditions: diC8-PI(4,5)P2 in recording pipette, concentration dependent; RVCMs, 2% O2; cited from earlier work
T3 construct: endogenous in cells; host or cells: rat ventricular cardiomyocytes (RVCMs)
T3 sequence (Q64273 1-427): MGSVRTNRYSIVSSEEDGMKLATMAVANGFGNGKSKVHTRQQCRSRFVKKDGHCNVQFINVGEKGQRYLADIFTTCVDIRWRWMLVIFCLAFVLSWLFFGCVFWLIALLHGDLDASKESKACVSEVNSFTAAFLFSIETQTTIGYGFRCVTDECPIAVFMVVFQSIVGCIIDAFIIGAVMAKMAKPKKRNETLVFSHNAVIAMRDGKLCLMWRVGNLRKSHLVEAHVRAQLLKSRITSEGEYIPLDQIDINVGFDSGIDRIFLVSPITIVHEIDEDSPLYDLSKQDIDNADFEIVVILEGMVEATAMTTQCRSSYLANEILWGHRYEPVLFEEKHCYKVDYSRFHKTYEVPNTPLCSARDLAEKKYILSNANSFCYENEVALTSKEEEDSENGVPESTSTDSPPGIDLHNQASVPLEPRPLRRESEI

Nav1.5-R1644C = target: T4, Nav1.5-R1644C (Homo sapiens, UniProt Q14524, R1644C); test: Whole-cell patch-clamp ILATE of Nav1.5-R1644C in HEK293T cells with CRY2-5POCRL; assay type: cell-based
T4 construct: expressed in transfected cells; host or cells: HEK293T
Method: as §1
Results. Our studies were designed to evaluate PIP2-regulation for Nav1.5 channelopathies from multiple perspectives. Given that there is a lack of structural data to identify where, or how many PIP2 molecules bind to Nav1.5, we performed a docking simulation to identify putative PIP2 binding sites in the open, rat and human Nav1.5 cryoEM structures (PDB: 6UZ3 and 7DTC) (56-58). We observed four potential PIP2 binding sites at the boundary between the inner leaflet of the membrane and the cytoplasm with one at the interface between each voltage sensor and the channel body. In each case, we noted electrostatic and hydrogen bond interactions between the headgroup of PIP2 and multiple disease associated residues. Among these, we elected to perform functional studies on Nav1.5-R1644C, an LQT3 mutant located between the S4 and S5 transmembrane segments of DIV. We expressed wild type Nav1.5 or Nav1.5-R1644C with Nav1β, CIBN-CAAX and CRY2-5POCRL in HEK293T cells and studied ILATE with and without optogenetic dephosphorylation of PIP2. In wild-type Nav1.5, ILATE was 0.25±0.1% of the peak (n=8) whereas in […], ILATE was 1.2±0.2% of peak (n=8, P<0.01, unpaired t-test comparison to WT). Dephosphorylation of PIP2 elevated ILATE in both channels to ˜4% of the peak but did so more rapidly for Nav1.5-R1644C. Thus, WT Nav1.5 ILATE plateaued after 180±15 s of optogenetic dephosphorylation compared to 86±22 s in Nav1.5-R1644C channels (n=8 for both experiments). […] Next, we used the Monolith Nanotemper system to establish a microscale thermophoresis (MST) approach to measure the binding affinity of PIP2 for Nav1.5 channels. MST measures the mobility of the GFP-tagged protein in response to an IR-laser pulse. Ligand binding alters the motion of the target protein, allowing the user to generate a binding curve and extracting a binding constant (Kd) (FIG. 6A). First, we studied GFP-Nav1.5 expressed in HEK293T cells along with Navβ1.
Next, aimed to test the hypothesis that the relationship of PIP2 with the channel in certain disease-associated variants is altered. We employed a variant of Nav1.5 identified in patients with Long QT Syndrome Type 3, Arg1644→C and assessed it sensitivity to the widely used 5P-OCRL construct. We observed a right shift in the G-V curve and an increase in the ILATE over WT conditions as well as a further increase following blue light induction of PIP2 dephosphorylation. We then used the patch pipette to enrich cells expressing these channels with diC8PI(4,5)P2. We observed that the enhanced ILATE observed under control conditions is mitigated by the inclusion of diC8PIP2 in patch pipette while the shift in the G-V is not rescued by the inclusion of diC8PI(4,5)P2 in the pipette.

CCCCCCCC(=O)OC[C@H](COP(=O)(O)O[C@@H]1[C@H](O)[C@H](O)[C@@H](OP(=O)(O)O)[C@H](OP(=O)(O)O)[C@H]1O)OC(=O)CCCCCCC [diC8-PIP2]
Kd (Nav1.5 WT): 45 ± 10 nM
effect on ILATE increase when PIP2 is dephosphorylated (WT-Nav1.5): opposed
effect on hypoxic inhibition of IK1 (IK1 (Kir2.1)): opposed
effect on elevated baseline ILATE (Nav1.5-R1644C; 200 μM diC8-PIP2 in pipette): ameliorated; also recorded: abolishing; also recorded: decreased
effect on elevation in ILATE following optogenetic stimulation of CRY2-5POCRL (Nav1.5-R1644C; 200 μM diC8-PIP2 in pipette): opposed
effect on more rapid rise of ILATE on PIP2 dephosphorylation (Nav1.5-R1644C; 200 μM diC8-PIP2 in pipette): opposed
effect on elevated baseline ILATE (Nav1.5-R1644C; 200 μM diC8-PIP2 in pipette, listed as diC8PIP2): mitigated
ILATE (Nav1.5-R1644C; 200 μM diC8-PIP2 in pipette, without diC8-PIP2 1.2±0.2): 0.46±0.1 % of peak INa
effect on right shift in the G-V (Nav1.5-R1644C; diC8PI(4,5)P2 in pipette): not rescued
